Experimental data: patent US20110319384A1, “Pharmaceutical Compositions” (priority 2005, published 2011)
Like-named read-outs stand apart in the source and are kept apart here.

Legend:
[1] = system: outpatient adults with SRI-resistant OCD
[2] = system: patients with treatment resistant major depression; test: Example 24: augmentation of antidepressant therapy, quetiapine versus lithium, 56 days
Procedure: The study compared tolerability and efficacy. […] Lithium was initiated at 600 mg/day, and maintained over Week 1 and 2 and subsequently adjusted to attain a level of 0.8-1.2 mmol/L. Lithium levels were taken weekly.
A total of 20 patients were randomized to 1 of the 2 treatment groups. The study population included men and women aged 18-65 years, with a diagnosis of major depression according to DSM-IV, Hamilton Depression Rating Scale (HAM-D)≧20 and a Clinical Global […] (CGI) score ≧4.
Patients were evaluated at baseline and then on days 7, 14, 28, 42, and 56 using the HAM-D, Montgomery-Asberg […] (MADRS), SAS, and Widlocher Psychomotor Retardation Scale.

[3] = system: non-depressed patients with GAD; conditions: for change from baseline in HAM-A total score, observed case analysis: significant
[4] = system: patients with refractory depression (RD); test: Example 29: Cognitive Behavior Therapy (CBT) plus quetiapine or placebo
patients with GAD = conditions: hypothesis to be tested
[5] = system: patients with major depression with prominent anxiety symptoms; test: Example 33: double-blind randomized 8-week study, quetiapine augmentation of SSRIs/SNRIs
Procedure: Patients were also evaluated according to the CGI-S scale for severity, the Global Assessment scale (GAS) and for adverse events (AEs). Patients were evaluated at baseline and at Weeks 1, 2, 4, 6, and 8. Response was defined as a ≧50% reduction in HAM-D or HAM-A total scores from baseline to Week 8. Remission was defined as a HAM-D or HAM-A total score of 7 or lower at Week 8.
In order to be included in the study, patients had to have a DSM-IV diagnosis of major depression (HAM-D score ≧18), a CGI-S score ≧4, and a HAM-A score ≧14. […] Patients who had: (1) a current CNS disorder; (2) significant hepatic, renal or gastrointestinal impairment; (3) acute, unstable or significant and untreated medical conditions; (4) current substance abuse or dependence; or (5) were at risk for suicide were excluded. Pregnant or breast-feeding women were excluded also.

[6] = add-on to antidepressant, mean doses quetiapine 430 mg/day, lithium 825 mg/day

## OCCOCCN1CCN(C2=Nc3ccccc3Sc3ccccc32)CC1 [quetiapine, 11-[4-[2-(2-hydroxyethoxy)ethyl]-1-piperazinyl]-dibenzo[b,f][1,4]thiazepine]
[1]; added to SRI
  mean MADRS score at baseline: about 19
  mean MADRS score at trial end: about 15
  mean Y-BOCS score at baseline, the 5 patients that responded: about 30
[1]; added to SRI, 8 weeks
  mean Y-BOCS score after treatment, the 5 patients that responded: about 17
[1]; added to SRI, final mean dosage about 169 mg/day
  patients who responded to treatment (≧25% decrease in Y-BOCS score at endpoint): Five of the 16
[1]; in vivo
  most common adverse events: Sedation and fatigue
  patients who withdrew because of an adverse event: 1 patient
  severity of adverse events: generally mild
[2]; add-on to antidepressant
  Widlocher Psychomotor Retardation Scale mean baseline score: about 30
  Widlocher Psychomotor Retardation Scale mean score after treatment: about 7
  mean MADRS score after Day 7 up to Day 56 (end value): about 8
  mean MADRS score, start value 'After Day 7': about 38
[2]; [6]
  mean HAM-D score at Day 56: about 5
  mean HAM-D score, start value of 'From Day 7 to 56': about 26
[2]; after 56 days
  patients in remission (HAM-D): about 80%
  patients who responded (MADRS): Eighty
  patients who responded to treatment (HAM-D): about 80%
[2]; at 56 days
  patients who achieved remission (MADRS): Eighty
[2]; in vivo
  SAS scale scores versus baseline: decreased scores from baseline
[3]; Week 2, placebo −3.0
  reduction in HAM-A psychic anxiety subscale, observed cases: −6.6
[3]; Week 2, placebo −5.9
  change from baseline in HAM-A total score, observed case analysis: −11.1
[3]; Week 4, placebo −4.0
  reduction in HAM-A psychic anxiety subscale, observed cases: −7.8
[3]; Week 4, placebo −8.6
  change from baseline in HAM-A total score, observed case analysis: −13.7
[3]; baseline to week 6, ITT, LOCF, placebo about 9, difference not significant, mean dose 125 mg/day
  mean decrease from baseline in HAM-A total score: about 12
[3]; in vivo
  AIMS, SAS, or BARS scores versus placebo: no statistically significant differences
  tolerability: generally well tolerated
[3]; of 19 in the group
  patients who discontinued treatment because of AEs: Five
[3]; placebo 21.1%, not statistically significant
  remission rate at endpoint (HAM-A total score ≦7): 42.1%
[3]; placebo 36.8%, not statistically significant
  response rate at endpoint (≧50% reduction in HAM-A total score): 57.9%
[3]; placebo −1.05
  reduction from baseline on the CGI-S: −1.37
[3]; placebo −3.16
  reduction from baseline on the Hospital Anxiety and Depression (HAD) anxiety subscale: −3.79
[3]; placebo −4.4
  reduction from baseline on the HAM-A somatic subscale: −5.2
[4]; 50% drop-out rate in the CBT+placebo arm
  lack of response drop-outs: no lack of response drop-outs
[4]; CBT 12 weekly sessions, quetiapine up to 200 mg twice a day, no significant reductions with CBT+placebo
  all primary efficacy measures (MADRS, HAM-D): significantly reduced
[4]; in vivo
  most common side effect: Somnolence
  serious adverse events: No serious adverse events were observed
  study survivability (at least 4 or more CBT sessions prior to withdrawal): increased study survivability
  tolerability: generally well-tolerated
Patients with GAD; compared to placebo
  Somnolence: severity of AEs, time of first instance, withdrawals due to AE of somnolence: generally mild, occurs early in
Patients with GAD; depressive symptoms in GAD, vs placebo
  Change from randomization in MADRS total score at Day 57: Quetiapine is more effective
Patients with GAD; discontinuation symptoms
  Adverse events related to discontinuation; change in Discontinuation-Emergent Signs and Symptoms total score at Day 64 and Day 71: Quetiapine does not have
Patients with GAD; once daily up to 300 mg/day
  Change from normal to Clinically Important in Physical Examinations; Laboratory values; Vital signs; ECGs: 300 mg/day is safe and well
Patients with GAD; patient satisfaction, vs placebo
  Change from randomization in Q-les-Q Item 15 (Satisfaction with medication) at Day 57: Quetiapine is more effective
Patients with GAD; patients with GAD, Day 8
  Change from randomization in HAM-A total score, HAM-A psychic cluster, HAM-A somatic cluster and CGI-S score at Day 8: anti-anxiety effect by Day 8
Patients with GAD; quality of life, vs placebo
  Change from randomization in Q-les-Q total score and Q-les-Q Item 16 (Overall life satisfaction) at Day 57: Quetiapine is more effective
Patients with GAD; response rate vs placebo, Day 8
  HAM-A Response (decrease from randomization total score of ≧50%) at Day 8: Quetiapine has a greater
Patients with GAD; response rate vs placebo, Day 57
  HAM-A Response (decrease from randomization total score of ≧50%) at Day 57: Quetiapine has a greater
Patients with GAD; vs placebo
  Adverse events of nausea or vomiting: placebo levels of nausea and
  Adverse events related to EPS (including akathisia); change in SAS and BARS scores at Day 57: placebo levels of EPS
Patients with GAD; vs placebo, Day 57
  HAM-A Remission (HAM-A total score ≦7) at Day 57: Quetiapine is better than
Patients with GAD; vs placebo, across anxiety symptoms, Day 57
  Change from randomization in CGI-S score, CGI-I (much or very much improved), HAM-A psychic cluster and HAMA somatic cluster at Day 57: Quetiapine is more effective
[5]; added to SSRI/SNRI
  mean HAM-A score at baseline: about 23
  mean HAM-D score at baseline: about 23
[5]; added to SSRI/SNRI, 8 weeks
  mean HAM-A score after treatment: about 10
  mean HAM-D score after treatment: about 12
[5]; added to SSRI/SNRI, 8 weeks, placebo about 5
  mean improvement from baseline in HAM-A scores: about 13
[5]; added to SSRI/SNRI, 8 weeks, placebo about 5, mean dose 202 mg/day
  mean improvement from baseline in HAM-D scores: about 11
[5]; in vivo
  CGI-S and GAS assessments: significantly more effective than placebo
  serious AEs: no serious AEs were reported
[5]; no patients in the placebo group
  patients with an increase in bodyweight ≧5 kg: 6 patients
[5]; placebo 17%
  remission rate as assessed by HAM-A (total score of 7 or lower at Week 8): 41%
  remission rate as assessed by HAM-D (total score of 7 or lower at Week 8): 31%
